Measurements as given in patent US20240199587A1, “HETEROCYCLIC COMPOUNDS” (Hoffmann-La Roche Inc., priority 2021, published 2024).

molecular target: T1, MAGL (Homo sapiens, UniProt Q99685); assay: 2-AG assay (MAGL inhibitory activity, hydrolysis of 2-arachidonoylglycerol to arachidonic acid followed by mass spectrometry); assay type: biochemical; conditions: 8 μM 2-arachidonoylglycerol, 15 min pre-incubation, 30 min incubation at RT, RapidFire MS readout
T1 sequence (Q99685 1-303): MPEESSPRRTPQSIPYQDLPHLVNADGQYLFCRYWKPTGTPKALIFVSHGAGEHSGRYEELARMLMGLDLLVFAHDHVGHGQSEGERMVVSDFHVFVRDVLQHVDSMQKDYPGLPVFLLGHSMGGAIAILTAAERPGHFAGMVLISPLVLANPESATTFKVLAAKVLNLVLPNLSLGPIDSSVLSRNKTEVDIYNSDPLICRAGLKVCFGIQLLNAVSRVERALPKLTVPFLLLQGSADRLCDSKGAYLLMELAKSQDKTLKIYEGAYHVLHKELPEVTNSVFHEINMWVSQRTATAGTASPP
Method in brief: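 Human MAGL ([…] final) pre-incubated 15 min at RT with compound in 50 mM TRIS, 1 mM EDTA, 0.01% Tween-20, 2.5% DMSO; 8 μM 2-AG then added for 30 min at RT. Acetonitrile quench with d8-arachidonic acid; arachidonic acid measured by RapidFire SPE–MS/MS, activity from arachidonic acid/d8 ratio.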

Row | SMILES | IC50
1 | Cc1oncc1S(=O)(=O)N1CC2(CN(C(=O)N3CC4(CC(n5cnc(C6CC6)n5)C4)C3)C2)C1 [Example 300, [6-(3-cyclopropyl-1,2,4-triazol-1-yl)-2-azaspiro[3.3]heptan-2-yl]-[2-(5-methylisoxazol-4-yl)sulfonyl-2,6-diazaspiro[3.3]heptan-6-yl]methanone] | 95.7 nM
2 | CC(C)(C)c1nc(C23CC(C(=O)N4CC5(CC(n6cnc(C7CC7)n6)C5)C4)(C2)C3)no1 [Example 163, [3-(5-tert-butyl-1,2,4-oxadiazol-3-yl)-1-bicyclo[1.1.1]pentanyl]-[6-(3-cyclopropyl-1,2,4-triazol-1-yl)-2-azaspiro[3.3]heptan-2-yl]methanone] | 192 nM
3 | O=C(N1CC2(CC(Oc3ccc(C(F)(F)F)nn3)C2)C1)N1CC2(CC(n3cnc(C4CC4)n3)C2)C1 [Example 62, [6-(3-cyclopropyl-1,2,4-triazol-1-yl)-2-azaspiro[3.3]heptan-2-yl]-[6-[6-(trifluoromethyl)pyridazin-3-yl]oxy-2-azaspiro[3.3]heptan-2-yl]methanone] | 7.2 nM
4 | CC(C)(C)c1nc(-c2ccc(C(=O)N3CC4(C3)CC(O)(c3cnc(C5CC5)o3)C4)cc2)no1 [Example 179, [4-(5-tert-butyl-1,2,4-oxadiazol-3-yl)phenyl]−[6-(2-cyclopropyloxazol-5-yl)-6-hydroxy-2-azaspiro[3.3]heptan-2-yl]methanone] | 1030 nM
5 | O=C(N1CC(C23CC(c4nnc(C5CC5)o4)(C2)C3)C1)N1CC2(CC(n3cnc(C4CC4)n3)C2)C1 [Example 436, [3-[3-(5-cyclopropyl-1,3,4-oxadiazol-2-yl)-1-bicyclo[1.1.1]pentanyl]azetidin-1-yl]-[6-(3-cyclopropyl-1,2,4-triazol-1-yl)-2-azaspiro[3.3]heptan-2-yl]methanone] | 9.82 nM
6 | NC(=O)c1ccc(F)c(S(=O)(=O)N2CC3(CN(C(=O)N4CC5(CC(n6cnc(C7CC7)n6)C5)C4)C3)C2)c1 [Example 294] | 81.6 nM
7 | O=C(N1CC(c2ccc(NCC3(C(F)(F)F)CC3)nc2)C1)N1CC2(CC(c3ccc(C(F)(F)F)nc3)C2)C1 [Example 527] | 50.9 nM
8 | O=C(N1CC(c2ccc(C3(N4CCOCC4)CC3)cc2)C1)N1CC2(CC(n3cnc(C4CC4)n3)C2)C1 [Example 34, [6-(3-cyclopropyl-1,2,4-triazol-1-yl)-2-azaspiro[3.3]heptan-2-yl]-[3-[4-(1-morpholinocyclopro-pyl)phenyl]azetidin-1-yl]methanone] | 5.7 nM
9 | Nc1ncc(S(=O)(=O)N2CC3(CN(C(=O)N4CC5(CC(n6cnc(C7CC7)n6)C5)C4)C3)C2)cn1 [Example 310, [2-(2-aminopyrimidin-5-yl)sulfonyl-2,6-diazaspiro[3.3]heptan-6-yl]-[6-(3-cyclopropyl-1,2,4-triazol-1-yl)-2-azaspiro[3.3]heptan-2-yl]methanone] | 154 nM
10 | O=C(N1CC2(CC(n3cnc(C4CC4)n3)C2)C1)N1CC2(C1)CN(S(=O)(=O)CC(F)(F)F)C2 [Example 329, [6-(3-cyclopropyl-1,2,4-triazol-1-yl)-2-azaspiro[3.3]heptan-2-yl]-[2-(2,2,2-trifluoroethylsulfonyl)-2,6-diazaspiro[3.3]heptan-6-yl]methanone] | 743 nM
11 | O=C(N1CC2(CC(n3cnc(C4CC4)n3)C2)C1)N1CC2(C1)CN(S(=O)(=O)C13CC(C(F)(F)F)(C1)C3)C2 [Example 474, [6-(3-cyclopropyl-1,2,4-triazol-1-yl)-2-azaspiro[3.3]heptan-2-yl]-[2-[[3-(trifluoromethyl)-1-bicyclo[1.1.1]pentanyl]sulfonyl]-2,6-diazaspiro[3.3]heptan-6-yl]methanone] | 24.5 nM
12 | CS(=O)(=O)c1cc(F)cc(CC2CC3(C2)CN(C(=O)N2CC4(CC(n5cnc(C6(O)CC6)n5)C4)C2)C3)c1 [Example 411, [6-[(3-fluoro-5-methylsulfonyl-phenyl)methyl]-2-azaspiro[3.3]heptan-2-yl]-[6-[3-(1-hydroxycyclopropyl)-1,2,4-triazol-1-yl]-2-azaspiro[3.3]heptan-2-yl]methanone] | 16.3 nM
13 | O=C(N1CC(Oc2ccc(C3CC3)nn2)C1)N1CC2(CC(n3cnc(C4CC4)n3)C2)C1 [Example 280, [3-(6-cyclopropylpyridazin-3-yl)oxyazetidin-1-yl]-[6-(3-cyclopropyl-1,2,4-triazol-1-yl)-2-azaspiro[3.3]heptan-2-yl]methanone] | 39.4 nM
14 | CS(=N)(=O)c1ccc(CC2CC3(C2)CN(C(=O)N2CC4(CC(n5cnc(C6(O)CC6)n5)C4)C2)C3)cc1 (stereo not drawn) [Example 405, [6-[3-(1-hydroxycyclopropyl)-1,2,4-triazol-1-yl]-2-azaspiro[3.3]heptan-2-yl]-[6-[[4-(methylsulfonimidoyl)phenyl]methyl]-2-azaspiro[3.3]heptan-2-yl]methanone] | 169 nM
15 | NC(=O)C(c1ccc(F)cc1)C1CCN(C(=O)N2CC3(CC(n4cnc(C5CC5)n4)C3)C2)CC1 (single isomer, unassigned) [Example 291] | 76.2 nM

Stronger by IC50, values ahead:

Row | IC50 | SMILES
16 | 2.22 nM | CS(=N)(=O)c1ccc(CC2CC3(C2)CN(C(=O)N2CC4(CC(n5cnc(C6CC6)n5)C4)C2)C3)cc1 (single isomer, unassigned) [Example 442, [6-(3-cyclopropyl-1,2,4-triazol-1-yl)-2-azaspiro[3.3]heptan-2-yl]-[6-[[4-(methylsulfonimidoyl)phenyl]methyl]-2-azaspiro[3.3]heptan-2-yl]methanone]
17 | 1 nM | O=C(N1C[C@H]2CC(Oc3ccc(F)cc3Cl)C[C@H]2C1)N1CC2(CC(n3cnc(C4CC4)n3)C2)C1 (mixture of isomers) [Example 93, [6-(3-cyclopropyl-1,2,4-triazol-1-yl)-2-azaspiro[3.3]heptan-2-yl]-[rac-(3aR,6aS)-5-(2-chloro-4-fluoro-phenoxy)-3,3a,4,5,6,6a-hexahydro-1H-cyclopenta[c]pyrrol-2-yl]methanone]
18 | 2.4 nM | O=C(N1C[C@H]2C[C@H](Oc3ccc(C(F)(F)F)c(Cl)c3)C[C@H]2C1)N1CC2(CC(n3cnc(C4CC4)n3)C2)C1 [Example 115, [6-(3-cyclopropyl-1,2,4-triazol-1-yl)-2-azaspiro[3.3]heptan-2-yl]-[rac-(3aS,6aR)-5-[3-chloro-4-(trifluoromethyl)phenoxy]-3,3a,4,5,6,6a-hexahydro-1H-cyclopenta[c]pyrrol-2-yl]methanone]
19 | 1.12 nM | CS(=N)(=O)c1cc(F)ccc1CC1CC2(C1)CN(C(=O)N1CC3(CC(n4cnc(C5CC5)n4)C3)C1)C2 (stereo not drawn) [Example 416, [6-(3-cyclopropyl-1,2,4-triazol-1-yl)-2-azaspiro[3.3]heptan-2-yl]-[6-[[4-fluoro-2-(methylsulfonimidoyl)phenyl]methyl]-2-azaspiro[3.3]heptan-2-yl]methanone]
20 | 4.75 nM | O=C(N1CC(C23CC(c4nnc(C5(C(F)(F)F)CC5)[nH]4)(C2)C3)C1)N1CC2(CC(n3cnc(C(F)(F)F)n3)C2)C1 [Example 418, [3-[3-[5-[1-(trifluoromethyl)cyclopropyl]-4H-1,2,4-triazol-3-yl]-1-bicyclo[1.1.1]pentanyl]azetidin-1-yl]-[6-[3-(trifluoromethyl)-1,2,4-triazol-1-yl]-2-azaspiro[3.3]heptan-2-yl]methanone]
21 | 4.8 nM | O=C(N1C[C@H]2C[C@H](Oc3ccc(C(F)(F)F)cc3)C[C@H]2C1)N1CC2(CC(n3cnc(C4CC4)n3)C2)C1 [Example 113, [6-(3-cyclopropyl-1,2,4-triazol-1-yl)-2-azaspiro[3.3]heptan-2-yl]-[rac-(3aS,6aR)-5-[4-(trifluoromethyl)phenoxy]-3,3a,4,5,6,6a-hexahydro-1H-cyclopenta[c]pyrrol-2-yl]methanone]
22 | 0.26 nM | CS(=O)(=O)c1cc(Cl)ccc1-c1ccc(C2CN(C(=O)N3CC4(CC(n5cnc(C6(O)CC6)n5)C4)C3)C2)cc1 [Example 396, [3-[4-(4-chloro-2-methylsulfonyl-phenyl)phenyl]azetidin-1-yl]-[6-[3-(1-hydroxycyclopropyl)-1,2,4-triazol-1-yl]-2-azaspiro[3.3]heptan-2-yl]methanone]
23 | 1.6 nM | O=C(N1CC(c2ccc(N3CCC(O)(C(F)(F)F)C3)nc2)C1)N1CC2(CC(n3cnc(C4CC4)n3)C2)C1 (single isomer, unassigned) [Example 214]
24 | 3.9 nM | O=C(N1CC(OCc2ccc(C(F)(F)F)cc2)C1)N1CC2(CC(n3cnc(C4CC4)n3)C2)C1 [Example 72, (6-(3-cyclopropyl-1H-1,2,4-triazol-1-yl)-2-azaspiro[3.3]heptan-2-yl)(3-((4-(trifluoromethyl)benzyl)oxy)azetidin-1-yl)methanone]
25 | 0.13 nM | O=C(N1CC2(CC(n3cnc(C4(O)CC4)n3)C2)C1)N1CC2(CC[C@@H](Cc3cccc(S(=O)(=O)C(F)(F)F)c3)C2)C1 [Example 360, [6-[3-(1-hydroxycyclopropyl)-1,2,4-triazol-1-yl]-2-azaspiro[3.3]heptan-2-yl]-[(6S)-6-[[3-(trifluoromethylsulfonyl)phenyl]methyl]-2-azaspiro[3.4]octan-2-yl]methanone]
26 | 0.7 nM | COC(=O)C(C)(C)c1cccc(OC2CN(C(=O)N3CC4(CC(n5cnc(C6CC6)n5)C4)C3)C2)c1 [Example 200, methyl 2-[3-[1-[6-(3-cyclopropyl-1,2,4-triazol-1-yl)-2-azaspiro[3.3]heptane-2-carbonyl]azetidin-3-yl]oxyphenyl]-2-methyl-propanoate]
27 | 0.3 nM | O=C(N1CC2(CC(Cc3cnc(C(F)(F)F)cn3)C2)C1)N1CC2(CC(n3cnc(C4CC4)n3)C2)C1 [Example 193, [6-(3-cyclopropyl-1,2,4-triazol-1-yl)-2-azaspiro[3.3]heptan-2-yl]-[6-[[5-(trifluoromethyl)pyrazin-2-yl]methyl]-2-azaspiro[3.3]heptan-2-yl]methanone]
